# Reference: patent US20240287172A1, “PROTEIN BINDERS TO IRHOM2 EPITOPES” (SCIRHOM GMBH, priority 2019, published 2024)
# Tested on: PMA-induced release of endogenous HB-EGF from human U-937 cells
# Assay: ELISA-based HB-EGF release assay, PMA-induced, U-937 cells
# Assay type: cell-based
# Settings: PMA 25 ng/ml, 6 hours, murine (m) and chimeric (ch) antibodies and IgG at 3 μg/ml, Batimastat at 10 μM
# Procedure: In brief, on day 1, Nunc black MaxiSorp® 96-well plates (Thermo Fisher Scientific, USA) were coated for 7 hours with 100 μl per well of rat anti-human HB-EGF capture antibody (provided as part of the DuoSet ELISA kit) at 2 μg/ml TBS at room temperature. Capture antibody solution was removed and MaxiSorp® plates were blocked with 300 μl per well of TBS, 1% BSA at room temperature for 3 hours. […]
# Following another round of 4 times washing with 350 μl TBS-T (Carl Roth, Germany) per well on a 96-head plate washer (Tecan Group, Switzerland) and careful removal of all buffer traces after the fourth cycle, 100 μl AttoPhos substrate solution (Promega, USA) per well was added for incubation in the dark at room temperature for 1 hour. Using an infinite M1000 (Tecan Group, Switzerland) microplate reader, the fluorescence of each well was collected at an excitation wavelength of 435 nm and an emission wavelength of 555 nm. […]
smiles,measurement,value
CNC(=O)[C@H](Cc1ccccc1)NC(=O)[C@H](CC(C)C)[C@H](CSc1cccs1)C(=O)NO [Batimastat],inhibition at 10 µM,100%
